Where “and” joins values, the source holds several entries; their conditions need not be identical. Equal entries are not always repeated.
Assays:
[1] = test system: apoE knockout mice fed a 1% cholesterol diet; test: Effect of cyclooxygenase inhibition on the development of atherosclerosis in cholesterol-fed apoE knockout mice; conditions: for extent of lesion development: aortae after 10 weeks, vehicle 25.8±4.5%
Experimental: The role of cyclooxygenase-1 and cyclooxygenase-2 on the development of atherosclerosis in apoE knockout mice fed a 1% cholesterol diet was evaluated. […] ApoE^−/− fed a normal chow (n=20) and wildtype littermates (n=40) were used as controls for the study. Twenty-four hour urine samples were collected and the aortae harvested following 10 weeks of treatment.

hCox-2 = target: T1, hCox-2 (Homo sapiens, UniProt P35354); test: Evaluation of COX-2 activity in vitro (recombinant enzyme, PGE2 ELISA); type: biochemical
T1 construct: A 2.0 kb fragment containing the coding region of either human or murine COX-1 or human or murine COX-2; made in house; host or cells: SF9 insect cells (baculovirus, pVL1393)
T1 sequence (P35354 18-604): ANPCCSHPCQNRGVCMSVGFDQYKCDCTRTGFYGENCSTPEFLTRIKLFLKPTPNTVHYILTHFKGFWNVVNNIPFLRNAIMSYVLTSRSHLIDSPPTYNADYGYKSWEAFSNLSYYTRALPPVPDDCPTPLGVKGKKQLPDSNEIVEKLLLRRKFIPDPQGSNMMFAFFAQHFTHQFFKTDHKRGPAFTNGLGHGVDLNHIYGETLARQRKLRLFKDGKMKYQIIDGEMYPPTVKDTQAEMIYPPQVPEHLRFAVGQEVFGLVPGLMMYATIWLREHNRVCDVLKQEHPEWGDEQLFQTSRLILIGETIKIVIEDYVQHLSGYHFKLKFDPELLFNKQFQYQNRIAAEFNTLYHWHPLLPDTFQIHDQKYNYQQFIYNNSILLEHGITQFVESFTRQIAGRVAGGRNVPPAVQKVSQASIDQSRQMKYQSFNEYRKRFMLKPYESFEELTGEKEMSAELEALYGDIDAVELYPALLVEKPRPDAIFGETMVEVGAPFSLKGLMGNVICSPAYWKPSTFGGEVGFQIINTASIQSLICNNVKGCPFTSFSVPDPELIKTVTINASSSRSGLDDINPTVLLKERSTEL
Experimental: (§1) Recombinant baculoviruses were isolated by transfecting 4 μg of baculovirus transfer vector DNA into SF9 insect cells (2×10^8) along with 200 ng of linearized baculovirus plasmid DNA by the calcium phosphate method.
(§2) Recombinant viruses were purified by three rounds of plaque purification and high titer (10^7-10^8 pfu/mL) stocks of virus were prepared. For large scale production, SF9 insect cells were infected in 10 liter fermentors (0.5×10^6/mL) with the recombinant baculovirus stock such that the multiplicity of infection was 0.1. […] The homogenate was centrifuged at 10,000×G for 30 minutes, and the resultant supernatant was stored at −80° C. before being assayed for COX activity.
(§3) COX activity was assayed as PGE2 formed/μg protein/time using an ELISA to detect the prostaglandin released. CHAPS-solubilized insect cell membranes containing the appropriate COX enzyme were incubated in a potassium phosphate buffer (50 mM, pH 8.0) containing epinephrine, phenol, and heme with the addition of arachidonic acid (10 μM). Compounds were pre-incubated with the enzyme for 10-20 minutes prior to the addition of arachidonic acid. […] The PGE2 formed was measured by standard ELISA technology (Cayman Chemical).

hCox-1 = target: T2, hCox-1 (Homo sapiens, UniProt P23219); test: Evaluation of COX-1 activity in vitro (recombinant enzyme, PGE2 ELISA); type: biochemical
T2 construct: A 2.0 kb fragment containing the coding region of either human or murine COX-1 or human or murine COX-2; made in house; host or cells: SF9 insect cells (baculovirus, pVL1393)
T2 sequence (P23219 24-599): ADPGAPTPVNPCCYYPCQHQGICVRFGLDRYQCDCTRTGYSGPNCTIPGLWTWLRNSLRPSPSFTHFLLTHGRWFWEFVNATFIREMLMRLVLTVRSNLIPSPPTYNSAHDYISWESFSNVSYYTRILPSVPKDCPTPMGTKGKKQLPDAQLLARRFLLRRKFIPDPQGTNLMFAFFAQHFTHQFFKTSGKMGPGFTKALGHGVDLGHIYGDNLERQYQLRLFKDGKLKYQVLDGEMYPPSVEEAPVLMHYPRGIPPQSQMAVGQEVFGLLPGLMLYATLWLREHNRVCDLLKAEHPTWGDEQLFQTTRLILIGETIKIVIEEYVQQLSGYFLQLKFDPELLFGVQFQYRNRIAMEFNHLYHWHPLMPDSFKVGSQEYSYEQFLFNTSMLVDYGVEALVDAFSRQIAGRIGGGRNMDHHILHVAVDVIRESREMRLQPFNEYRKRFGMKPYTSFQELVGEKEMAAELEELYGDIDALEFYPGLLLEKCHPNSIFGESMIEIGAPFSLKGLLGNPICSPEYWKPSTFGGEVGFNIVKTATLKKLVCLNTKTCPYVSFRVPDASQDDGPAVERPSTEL
Experimental: as §1, §2, §3

[2] = 10 weeks, COX-1 inhibitor 15 mg/kg daily, COX-2 inhibitor 6 mg/kg
[3] = COX-1 inhibitor 15 mg/kg daily, COX-2 inhibitor 6 mg/kg

| Compound | IC50 (hCox-2) [µM] | IC50 (hCox-1) | other results |
| --- | --- | --- | --- |
| COc1ccc(-n2nc(C(F)(F)F)cc2-c2ccc(Cl)cc2)cc1 | – | – | CD41 staining of lesions (platelet deposition) [1, 2]: markedly attenuated |
| COc1ccc(-n2nc(C(F)(F)F)cc2-c2ccc(Cl)cc2)cc1 [Compound 1] | – | – | Urinary TXB2 excretion ([1]; 24 h urine after 10 weeks of treatment, COX-1 inhibitor 15 mg/kg daily, vehicle 20.7±4.02): 2.63 ± 0.59 ng/mL; extent of lesion development [1, 3]: 4.6±0.4% |
| COc1ccc(-n2nc(C(F)F)cc2-c2ccc(Cl)cc2)cc1 [Compound 2, 5-(4-chlorophenyl)-3-(difluoromethyl)-1-(4-methoxyphenyl)pyrazole] | > 100 | < 0.137 µM and 0.021 µM | – |
| COC(=O)c1cc(-c2ccc(Cl)cc2)n(-c2ccc(OC)cc2)n1 [Compound 3, 5-(4-chlorophenyl)-3-(methoxycarbonyl)-1-(4-methoxyphenyl)pyrazole] | > 100 | 0.284 µM | – |
| COc1ccc(-n2nc(C(=O)O)cc2-c2ccc(Cl)cc2)cc1 [Compound 4, 3-carboxy-5-(4-chlorophenyl)-1-(4-methoxyphenyl)pyrazole] | > 100 | 55.7 µM | – |
| FC(F)(F)c1cc(-c2ccccc2)n(-c2ccc(Cl)cc2)n1 [Compound 7, 1-(4-chlorophenyl)-5-phenyl-3-(trifluoromethyl)pyrazole] | > 1000 | 0.085 µM | – |
| FC(F)(F)c1cc(-c2ccc(Cl)cc2)n(-c2ccccc2)n1 [Compound 9, 5-(4-chlorophenyl)-1-phenyl-3-(trifluoromethyl)pyrazole] | > 1000 | 0.123 µM | – |
| FC(F)(F)c1cc(-c2ccc(Br)cc2)n(-c2ccccc2)n1 [Compound 12, 5-(4-bromophenyl)-1-phenyl-3-(trifluoromethyl)pyrazole] | > 500 | 0.435 µM | – |
| FC(F)(F)c1cc(-c2cccc(Br)c2)n(-c2ccccc2)n1 [Compound 13] | > 100 | 3.3 µM | – |
| FC(F)(F)c1cc(-c2ccc(I)cc2)n(-c2ccccc2)n1 [Compound 15, 5-(4-iodophenyl)-1-phenyl-3-(trifluoromethyl)pyrazole] | > 100 | 0.65 µM | – |
| NS(=O)(=O)c1ccc(-n2nc(C(F)(F)F)cc2-c2ccc(Cl)cc2)cc1 [selective COX-2 inhibitor, 4-[5-(4-chlorophenyl)-3-(trifluoromethyl)-1H-pyrazol-1-yl]benzenesulfonamide, reference compound] | – | – | CD41 staining of lesions (platelet deposition) [1, 2]: no effect; effect on TXB2 excretion (in words) ([1]; 10 weeks, COX-2 inhibitor 6 mg/kg): no effect; extent of lesion development [1, 3]: 27.9±1.8% |

More lines, main results first:

| IC50 (hCox-2) [µM] | IC50 (hCox-1) | Compound | other results |
| --- | --- | --- | --- |
| 0.424 | < 0.137 µM | Cc1ccc(-c2cc(C(F)(F)F)nn2-c2ccc(Br)cc2)cc1 [Compound 16, 1-(4-bromophenyl)-5-(4-methylphenyl)-3-(trifluoromethyl)pyrazole] | – |
| > 100 | 0.442 µM | COC(=O)c1nn(-c2ccc(OC)cc2)c2c1CCc1cc(OC)ccc1-2 [Compound 18] | – |
| > 100 | 0.126 µM | COc1ccc(-n2nc(C(F)F)cc2-c2ccc(SC)cc2)cc1 [Compound 19] | – |
| > 1000 | 0.027 µM | COc1ccc(-n2nc(CCC(=O)N(C)O)cc2-c2ccc(Cl)cc2)cc1 [Compound 20] | – |
| 22.8 | 0.647 µM | O=[N+]([O-])c1ccc(-c2cc(C(F)F)nn2-c2ccc(F)cc2)cc1 [Compound 21] | – |
| > 100 | 0.81 µM | O=[N+]([O-])c1ccc(-n2nc(C(F)(F)F)cc2-c2ccc(Cl)cc2)cc1 [Compound 22] | – |
| > 100 | 0.676 µM | O=[N+]([O-])c1ccc(-n2nc(C(F)F)cc2-c2ccc(Cl)cc2)cc1 [Compound 23] | – |
| – | ≤ 0.137 µM | NS(=O)(=O)c1ccc(-n2nc(C(=O)O)cc2-c2ccccc2)cc1 [Compound 24] | – |
| > 100 | 0.31 µM | COC(=O)c1ccc(-n2nc(C(F)(F)F)cc2-c2ccc(C)cc2)cc1 [Compound 26] | – |
| > 100 | 0.141 µM | COc1ccc2c(c1)CSc1c(C(F)(F)F)nn(-c3ccc(Cl)cc3)c1-2 [Compound 27] | – |
| 23 | 0.643 µM | COc1ccc(-c2cc(C(F)F)nn2-c2ccc(Cl)cc2)cc1F [Compound 28] | – |
| – | 0.242 µM | COc1ccc(-n2nc(CO[N+](=O)[O-])cc2-c2ccc(Cl)cc2)cc1 [Compound 29] | – |
| > 100 | 0.108 µM | Cc1ccc(-c2cc(C(F)(F)F)nn2-c2ccc(C(F)(F)F)cc2)cc1 [Compound 30] | – |
| 67.1 | 0.287 µM | COc1ccc(-c2cc(C(F)(F)F)nn2-c2ccc(C)cc2)cc1C [Compound 31] | – |
| ≥ 1000 | 0.012 µM | COc1ccc(-n2nc(C(=O)Nc3ccc(N=[N+]=[N-])cc3)cc2-c2ccc(Cl)cc2)cc1 [Compound 32] | – |

Source: US20030162824A1, “Methods of treating or preventing a cardiovascular condition using a cyclooxygenase-1 inhibitor” (priority 2001, published 2003)
